Here are results for eight sequences from patent US10758609B2, “Cross-reactive T-cell epitopes of HIV, SIV, and FIV for vaccines in humans and cats” (priority 2015, dated 2020).

Experiment [1] concerns PBMC from FIV-vaccinated cats. As to the kind of experiment: Feline IFNγ ELISpot of PBMC from vaccinated cats. In kind it is cell-based, cat. As to conditions: for IFNγ production: cats of Group 1, MAP Vaccine Trial 1 (FIG. 3). Here is the method: (§1) IFNγ and IL2 ELISpot analyses were performed using feline IFNγ ELISpot and feline IL2 ELISpot kits (R&D Systems, Cat# SEL764 and SEL1890) as described. The threshold is defined as ≥50 spot forming units (SFU) per 1×10^6 PBMC when counted with MVS ELISpot Reader (MVS Pacific, LLC). Each result is an average of the duplicate samples after subtraction of the average value of the media controls.
(§2) Concurrently, the overlapping peptide pools of FIV structural/enzyme proteins were used to stimulate PBMC and T cells from FIV-vaccinated cats. These cats were vaccinated with prototype dual-subtype FIV vaccine which was the prototype to our commercial FIV vaccine (Coleman et al., 2014). The feline assays (Example 1) equivalent to those of human assays (Sanou et al., 2013; Roff et al., 2015) were used except for ICS analysis. In place of ICS for cytolysin/cytotoxins, IL2 ELISpot analysis was performed. […] The results for FIV-vaccinated cats included IFNγ and IL2 productions and CD3^+CD4+ and CD3^+CD8^+ T-cell proliferation (Table 9, the second set of results).
(§3) The feline IFNγ and L2 ELISpot analyses of PBMC to FIV MAPs and peptides were performed as previously described (Abbott et al. (2012)) using feline IFNγ modular kit (R&D Systems, Minneapolis, Minn.) and feline IL2 modular kit (R&D Systems). All results shown in the figures (FIGS. 8A-1, 8B-1, 8A-2, 8B-2, 8A-3, 8B-3) are after subtracting the average value of the results from all control cats.
(§4) The second parameter evaluated was the ability of the peripheral blood mononuclear cells (PBMC) from vaccinated and control cats to produce IL2 and interferon-γ (IFNγ) proteins in responses to FIV MAPs and peptides (FIGS. 8A-1, 8A-2, 8A-3, 8B-1, 8B-2, 8B-3) using feline IL2 and IFNγ ELISpot assays (Aranyos et al. (2016); Abbott et al. (2012)). IL2 enhances the proliferation of FIV-specific CD4^+ T cells and CD8^+ T cells. IFNγ is known enhance the FIV-specific CTL activities in vaccinated cats (Abbas et al. (2015)).

In experiment [2] the test system is PBMC from FIV-vaccinated cats. The experiment can be described thus: Feline IL2 ELISpot of PBMC from vaccinated cats. In kind it is cell-based, cat. As to the method:
as §1, §2, §3, §4

In experiment [3] the test system is feline CD3^+CD4^+ T cells. As to the kind of experiment: CFSE-based feline CD3+CD4+ T-cell proliferation. Details: species or system cat. As to conditions: FIV-vaccinated cats; for CD4, frequency of responders: FIV epitope peptide; for CDC4^+ T (T-cell proliferation), frequency of responders: FIV peptides. Here is the method: (§5) Carboxyfluorescein diacetate succinimide ester (CFSE)-proliferation was performed according to the manufacturer's protocol (Invitrogen, Grand Island, N.Y.) and processed using a previously described modification. The modification consisted of 2.5×10^5 CFSE-labeled feline PBMC stimulated for 5 days (37° C., 5% CO2) with 4 μg/mL peptide in culture media (RPMI medium 25 µg/mL gentamycin, and 10% heat-inactivated fetal bovine serum (FBS)). Peptide pools consisted of 3-5 overlapping peptides of 4 μg/mL each. The antibodies used for flow cytometry based proliferation analysis consisted of murine anti-feline (Fe) CD3 monoclonal antibody (MAb clone kindly provided by Drs. Yorihiro Nishimura and Takayuki Miyazawa; described in [32]) combined with secondary goat anti-mouse IgG3-APC/CY7 MAb (SouthernBiotech, Birmingham, Ala.; Cat#1100-19); and murine anti-FeCD4-PE MAb (SouthernBiotech, Cat#8130-09); and murine anti-FeCD8 MAb (MAb clone kindly provided by Dr. Nazareth Gengozian, described in [33]) with secondary goat anti-mouse IgG2a-PE/CY7 (Southern Biotech, Cat#1080-17). The murine anti-B220-APC MAb for detecting feline B cells (SouthernBiotech, Cat#1665-11) and previously described MAbs for CFSE were used for FACS phenotyping. Both FACS phenotyping and CFSE-proliferation analyses were performed with BD LSRII and FACSDiva™ Software (BD Biosciences, San Jose, Calif.). The final value for each sample was derived after subtraction of the average value of the media controls using a positive threshold of ≥1 CFSE^low.
as §2
(§6) Carboxyfluorescein diacetate succinimide ester (CFSE)-proliferation analysis was according to the manufacturer's protocol (Invitrogen-Fisher, Carlsbad, Calif.) and processed as previously described (Roff et al. (2015)) using the following modifications: anti-feline CD3 antibody ((clone NZM1), a generous gift from T. Miyazawa (Univ. of Tokyo, Japan)) in combination with APC-conjugated anti-mouse IgG3 (Southern Biotech, Birmingham, Ala.), PE-conjugated anti-feline CD4 antibody (Southern Biotech), and anti-feline CD8 antibody (gift from N. Gengozian, University of Tennessee (Gengozian et al. (1997))) in combination with PE/Cy7-conjugated anti-mouse IgG2b (Southern Biotech) to detect the proliferation of feline CD3^+CD4+ T cells and feline […]. All results shown in the figures (FIGS. 7A-1, 7B-1, 7A-2, 7B-2, 7A-3, 7B-3) are after subtracting the average value of each results from all control cats. The threshold of CFSE proliferation is ≥0.5 CFSE^low. […]

Experiment [4] deals with feline CD3^+CD8^+ T cells. As to the kind of experiment: CFSE-based feline CD3+CD8+ T-cell proliferation. Details: species or system cat. The following applies: for CD8, frequency of responders: FIV epitope peptide; for CD8, frequency of responders / CD8^+ T (T-cell proliferation), frequency of responders: FIV-vaccinated cats; for CD8^+ T (T-cell proliferation), frequency of responders: FIV peptides; for % CD8+ T-cell CFSE^low over % CD4+ T-cell CFSE^low ratio (CD8/CD4 response ratio): cats of Group 1, MAP Vaccine Trial 1 (FIG. 3). As to the method:
as §5, §2, §6

[5] abbreviates: FIV epitope peptide, FIV-vaccinated cats.
Setting [6] is: FIV peptides, FIV-vaccinated cats (prototype dual-subtype vaccine).

As for GSSKEIDMAIVTLKV [FMA2], the “IFNγ, frequency of responders” value in experiment [1] (setting [5]) is “++ (26%-40% (++))”. Besides, in experiment [1] (setting [6]), the “IFNγ, frequency of responders” value was “++ (25.1%-40% (++))”. Further, the “IL2, frequency of responders” value in experiment [2] (FIV epitope peptide) is “++ (26%-40% (++))”. Moreover, the “IL2, frequency of responders” value in experiment [2] (FIV peptides) is “++ (25.1%-40% (++))”. For the same sequence, in experiment [3], the “CD4, frequency of responders” value is recorded as “++++ (>54% (++++))” and the “CDC4^+ T (T-cell proliferation), frequency of responders” value (“CDC4^+ T (T-cell proliferation)” below) is reported as “++++ (>54% (++++))”. Moreover, in experiment [4], the “CD8, frequency of responders” value is “++++ (>54% (++++))” and the “CD8^+ T (T-cell proliferation), frequency of responders” value (shortened to “CD8^+ T (T-cell proliferation)”) is reported as “++++ (>54% (++++))”.
For the sequence WRMLIDFRVLNKLTDKGA [FRT3-4/5], in experiment [1] (setting [6]), the “IFNγ, frequency of responders” value is given as “— (0%-1.4%(—))”. For the same sequence, in experiment [2] (FIV peptides), the “IL2, frequency of responders” value is given as “+++ (40.1%-54% (+++))”. Further, the “CDC4^+ T (T-cell proliferation)” value in experiment [3] was “— (0%-1.4%(—))”. Besides, the “CD8^+ T (T-cell proliferation)” value in experiment [4] is on record as “— (0%-1.4%(—))”.
NVAVGVGGKSKKF [FMA1]: in experiment [1] (setting [5]), the “IFNγ, frequency of responders” value is “++++ (>54% (++++))”. The “IFNγ, frequency of responders” value in experiment [1] (setting [6]) is reported as “++++ (>54% (++++))”. Further, the “IL2, frequency of responders” value in experiment [2] (FIV peptides) was “— (0%-1.4%(—))”. Moreover, in experiment [3], the “CD4, frequency of responders” value is reported as “+++ (41%-54% (+++))” and the “CDC4^+ T (T-cell proliferation)” value is on record as “+++ (40.1%-54% (+++))”. Further, in experiment [4], the “CD8, frequency of responders” value is recorded as “++++ (>54% (++++))” and the “CD8^+ T (T-cell proliferation)” value is given as “++++ (>54% (++++))”.
Regarding “AEVKLYLKQSLSIANA [Fp14-3/4, overlapping peptide of MAP3]”, in experiment [1] (setting [6]), the “IFNγ, frequency of responders” value was “+++ (40.1%-54% (+++))”. Besides, the IFNγ production in experiment [1] was 96 SFU/10^6 PBMC. The “IL2, frequency of responders” value in experiment [2] (FIV peptides) is “++++ (>54% (++++))”. In addition, the “CDC4^+ T (T-cell proliferation)” value in experiment [3] is “+++ (40.1%-54% (+++))”. For the same sequence, in experiment [4], the “CD8^+ T (T-cell proliferation)” value is listed as “+++ (40.1%-54% (+++))” and the “% CD8+ T-cell CFSE^low over % CD4+ T-cell CFSE^low ratio (CD8/CD4 response ratio)” value came out at 4.8.
As to TLEKRPEILIFVNG [FPR1], the “IFNγ, frequency of responders” value in experiment [1] (setting [5]) is “— (0%-1.4% (—))”. Further, the “IFNγ, frequency of responders” value in experiment [1] (setting [6]) is “— (0%-1.4%(—))”. The “IL2, frequency of responders” value in experiment [2] (FIV epitope peptide) was “— (0%-1.4% (—))”. In experiment [2] (FIV peptides), the “IL2, frequency of responders” value is on record as “— (0%-1.4%(—))”. In addition, in experiment [3], the “CD4, frequency of responders” value is listed as “++++ (>54% (++++))” and the “CDC4^+ T (T-cell proliferation)” value is recorded as “++++ (>54% (++++))”. For the same sequence, in experiment [4], the “CD8, frequency of responders” value is reported as “++++ (>54% (++++))” and the “CD8^+ T (T-cell proliferation)” value is listed as “++++ (>54% (++++))”.
AAAPVNQMQQAVMPSA [FNC2]: the “IFNγ, frequency of responders” value in experiment [1] (setting [5]) and in experiment [1] (setting [6]) was “++++ (>54% (++++))” in each case. The “IL2, frequency of responders” value in experiment [2] (FIV epitope peptide) and in experiment [2] (FIV peptides) was “++++ (>54% (++++))” each time. In experiment [3], the “CD4, frequency of responders” value was “— (0%-1.4% (—))”. Moreover, in experiment [3], the “CDC4^+ T (T-cell proliferation)” value is on record as “— (0%-1.4%(—))”. Besides, the “CD8, frequency of responders” value in experiment [4] is “++++ (>54% (++++))”. Also, the “CD8^+ T (T-cell proliferation)” value in experiment [4] is reported as “++++ (>54% (++++))”.
Turning to KFLLDTGADITILN [FPR2], the “IFNγ, frequency of responders” value in experiment [1] (setting [5]) and in experiment [1] (setting [6]) was “++++ (>54% (++++))” in each case. In addition, the “IL2, frequency of responders” value in experiment [2] (FIV epitope peptide) and in experiment [2] (FIV peptides) was “++++ (>54% (++++))” throughout. For the same sequence, in experiment [3], the “CD4, frequency of responders” value is recorded as “++++ (>54% (++++))”. In addition, the “CDC4^+ T (T-cell proliferation)” value in experiment [3] is “++++ (>54% (++++))”. Also, the “CD8, frequency of responders” value in experiment [4] is given as “++++ (>54% (++++))”. The “CD8^+ T (T-cell proliferation)” value in experiment [4] is on record as “++++ (>54% (++++))”.
Regarding “GRRYVWCSLPQGWVLSPLIY [FRT7-1/2, overlapping peptide of MAP5]”, the “IFNγ, frequency of responders” value in experiment [1] (setting [6]) is “+++ (40.1%-54% (+++))”. In experiment [1], the IFNγ production result is given as “no IFNγ response”. Moreover, the “IL2, frequency of responders” value in experiment [2] (FIV peptides) is listed as “+++ (40.1%-54% (+++))”. Further, in experiment [3], the “CDC4^+ T (T-cell proliferation)” value is “+++ (40.1%-54% (+++))”. Also, in experiment [4], the “CD8^+ T (T-cell proliferation)” value is given as “+++ (40.1%-54% (+++))” and the “% CD8+ T-cell CFSE^low over % CD4+ T-cell CFSE^low ratio (CD8/CD4 response ratio)” value is 11.
